Experiments:
Type in all cases: in vivo
[1] = system: Pyrenophora [syn. Drechslera] teres; assay: Activity against net blotch of barley caused by Pyrenophora teres, 1 day protective application; conditions: barley seedlings, efficacy in % of untreated control, read after 6 days
Procedure: (§1) The active compounds, separately or jointly, were prepared as a stock solution comprising 25 mg of active compound which was made up to 10 ml using a mixture of acetone and/or dimethyl sulfoxide and the emulsifier Uniperol® EL (wetting agent having an emulsifying and dispersing action based on ethoxylated alkylphenols) in a ratio by volume of solvent/emulsifier of 99:1. The mixture was then made up to 100 ml with water. This stock solution was diluted with the solvent/emulsifier/water mixture described to give the concentration of active compound stated below.
(§2) Alternatively, the active compounds epoxiconazole and pyraclostrobin were used as a commercial formulation and diluted with water to the stated active compound concentrations.
(§3) The visually determined percentages of infected leaf areas were converted into efficacies in % of the untreated control:
(§4) The efficacy (E) is calculated as follows using Abbot's formula: […]
(§5) α corresponds to the fungicidal infection of the treated plants in % and β corresponds to the fungicidal infection of the untreated (control) plants in %
(§6) An efficacy of 0 means that the infection level of the treated plants corresponds to that of the untreated control plants; an efficacy of 100 means that the treated plants are not infected.
(§7) The expected efficacies of active compound combinations were determined using Colby's formula (Colby, S. R. “Calculating synergistic and antagonistic responses of herbicide combinations”, Weeds, 15, pp. 20-22, 1967) and compared with the observed efficacies.
(§8) E=x+y−x·y/100 Colby's formula • E expected efficacy, expressed in % of the untreated control, when using the mixture of the active compounds A and B at the concentrations a and b • x efficacy, expressed in % of the untreated control, when using the active compound A at the concentration a • y efficacy, expressed in % of the untreated control, when using the active compound B at the concentration b
Activity Against Net Blotch of Barley Caused by Pyrenophora teres, 1 Day Protective Application
Leaves of potted barley seedlings were sprayed to runoff point with an aqueous suspension having the active compound concentration stated below. 24 hours after the spray coating had dried on, the test plants were inoculated with an aqueous spore suspension of Pyrenophora [syn. Drechslera] teres, the net blotch pathogen. The test plants were then placed in a greenhouse at temperatures between 20 and 24° C. and at 95 to 100% relative atmospheric humidity. After 6 days, the extent of the development of the disease was determined visually in % infection of the entire leaf area.

Alternaria solani = assay: Activity against early blight of tomato caused by Alternaria solani (protective spray on potted tomato plants); conditions: read after 5 days
Procedure: as §1, §2, §3, §4, §5, §6, §7, §8
Activity Against Early Blight of Tomato Caused by Alternaria solani
Leaves of potted tomato plants were sprayed to runoff point with an aqueous suspension having the active compound concentration stated below. The next day, the leaves were infected with an aqueous spore suspension of Alternaria solani in a 2% strength biomalt solution having a density of 0.17×10^6 spores/ml. The plants were then placed in a water vapor-saturated chamber at temperatures between 20 and 22° C. After 5 days, the disease on the untreated but infected control plants had developed to such an extent that the infection could be determined visually in %.

Botrytis cinerea = assay: Activity against gray mold on bell pepper leaves caused by Botrytis cinerea, 1 day protective application; conditions: efficacy in % of untreated control, read after 5 days
Procedure: as §1, §2, §3, §4, §5, §6, §7, §8
Activity Against Gray Mold on Bell Pepper Leaves Caused by Botrytis cinerea, 1 Day Protective Application
Bell pepper seedlings of the cultivar “Neusiedler Ideal Elite” were, after 2-3 leaves were well developed, sprayed to runoff point with an aqueous suspension in the active compound concentrations stated below. The next day, the treated plants were inoculated with a spore suspension of Botrytis cinerea which comprised 1.7×10^6 spores/ml in a 2% strength aqueous biomalt solution. The test plants were then placed in a dark climatized chamber at 22 to 24° C. and high atmospheric humidity. After 5 days, the extent of the fungal infection on the leaves could be determined visually in %.

[2] = single active compound 63 mg/l, efficacy in % of untreated control (Abbot)

Fc1ccc([C@]2(Cn3cncn3)O[C@H]2c2ccccc2Cl)cc1 (racemic) [epoxiconazole, (2RS,3SR)-1-[3-(2-chlorophenyl)-2,3-epoxy-2-(4-fluorophenyl)propyl]-1H-1,2,4-triazole]
Efficacy (% of untreated control) ([1]; single active compound 1 mg/l): 0%

Cn1cc(C(=O)Nc2ccccc2-c2ccccc2C(F)(F)F)c(C(F)F)n1 [No. 40, N-(2′-trifluoromethylbiphen-2-yl)-1-methyl-3-difluoromethyl-1H-pyrazole-4-carboxamide]
Efficacy (% of untreated control, Abbott) (Alternaria solani; [2]): 25%
Efficacy (% of untreated control) (Botrytis cinerea; single active compound 16 mg/l): 11%
Efficacy (% of untreated control) (Botrytis cinerea; single active compound 63 mg/l): 44%
Efficacy (% of untreated control) ([1]; single active compound 4 mg/l): 18%

Cn1cc(C(=O)Nc2ccccc2-c2ccccc2C(F)(F)F)c(C(F)(F)F)n1 [No. 57, N-(2′-trifluoromethylbiphen-2-yl)-1-methyl-3-trifluoromethyl-1H-pyrazole-4-carboxamide]
Efficacy (% of untreated control) (Botrytis cinerea; single active compound 4 mg/l): 0%
Efficacy (% of untreated control) (Botrytis cinerea; single active compound 16 mg/l): 0%
Efficacy (% of untreated control) (Botrytis cinerea; single active compound 63 mg/l): 22%
Efficacy (% of untreated control) ([1]; single active compound 16 mg/l): 41%

N#Cc1c(Cl)c(Cl)c(Cl)c(C#N)c1Cl [chlorothalonil, 2,4,5,6-tetrachloroisophthalonitrile]
Efficacy (% of untreated control, Abbott) (Alternaria solani; [2]): 0%

COc1ccc(C(=CC(=O)N2CCOCC2)c2ccc(Cl)cc2)cc1OC [dimethomorph, 3-(4-chlorophenyl)-3-(3,4-dimethoxyphenyl)-1-morpholin-4-yl-propenone]
Efficacy (% of untreated control) ([1]; single active compound 4 mg/l): 0%

O=c1c2cc(F)ccc2nc(-n2cncn2)n1-c1ccc(Cl)cc1Cl [fluquinconazole, 3-(2,4-dichlorophenyl)-6-fluoro-2-[1,2,4]-triazol-1-yl-3H-quinazolin-4-one]
Efficacy (% of untreated control, Abbott) (Alternaria solani; single active compound 4 mg/l, efficacy in % of untreated control): 0%

CO/N=C(/C(=O)OC)c1ccccc1COc1ccccc1C [kresoximmethyl, methyl (E)-methoxyimino[α-(o-tolyloxy)-o-tolyl]acetate]
Efficacy (% of untreated control) (Botrytis cinerea; single active compound 16 mg/l): 0%
Efficacy (% of untreated control) (Botrytis cinerea; single active compound 63 mg/l): 0%

COc1cc(C)c(C(=O)c2c(OC)ccc(Br)c2C)c(OC)c1OC [metrafenone, 3′-bromo-2,3,4,6′-tetramethoxy-2′,6-dimethylbenzophenone]
Efficacy (% of untreated control) (Botrytis cinerea; single active compound 16 mg/l): 0%

COC(=O)N(OC)c1ccccc1COc1ccn(-c2ccc(Cl)cc2)n1 [pyraclostrobin, methyl N-{2-[1-(4-chlorophenyl)-1H-pyrazol-3-yloxymethyl]phenyl}(N-methoxy)carbamate]
Efficacy (% of untreated control) (Botrytis cinerea; single active compound 16 mg/l): 11%

Cc1cc(C)nc(Nc2ccccc2)n1 [pyrimethanil, 4,6-dimethylpyrimidin-2-ylphenylamine]
Efficacy (% of untreated control) (Botrytis cinerea; single active compound 4 mg/l): 0%
Efficacy (% of untreated control) (Botrytis cinerea; single active compound 63 mg/l): 0%

CC(C)(C)C(O)(CCc1ccc(Cl)cc1)Cn1cncn1 (centres unmarked) [tebuconazole, 1-(4-chlorophenyl)-4,4-dimethyl-3-[1,2,4]triazol-1-ylmethylpentan-3-ol]
Efficacy (% of untreated control) ([1]; single active compound 4 mg/l): 0%

zinc ammoniate ethylenebis(dithiocarbamate) [metiram]
Efficacy (% of untreated control, Abbott) (Alternaria solani; [2]): 0%

Reference: US20090123561A1, “Fungicide mixtures based on 1-methyl-pyrazol-4-ylcarboxanilides” (BASF AKTIENGESELLLSCHAFT, priority 2005, published 2009)
